In patent publication US6440946B1, “Multiple-agents-binding compound, production and use thereof” (Takeda Chemical Industries, Ltd., priority 1999, dated 2002):

Tests used:
[1] = test system: HIV-1 IIIB (HTLV-IIIB) virus in CEMM-SS cells; test: Anti-HIV activity: prevention of death of HIV-infected T cell lymphocytes (MTT method); assay type: cell-based, HIV type 1 virus; settings: 6 days
Experimental: Anti-HIV activity of the compounds of the present invention was evaluated according to the method described below.
The inhibitory effect on virus particle formation of HIV virus with which T cell lymphocytes were infected was evaluated according to ability to prevent T cell lymphocytes infected with said HIV virus from dying.
According to the test method described in the literature (O. S. Weislow et al., J. Natl. Cancer Inst., 81, 577 (1989), etc.), anti-HIV activity of the compounds of the present invention was evaluated. As the T cell lymphocytes, CEMM-SS cells were used. As the HIV virus, HIV-1 IIIB (HTLV-IIIB) virus which is HIV type 1 virus was used. On 96 well microtiter plate containing 200 μl of culture medium (RPMI-1640 medium containing 50 μg/ml of gentamicin and 10% fetal calf serum), determined concentration of Test Compound and HIV-1 IIIB virus (the mount of virus per well is that necessary for completely killing infected cells 6 days after infection), CEMM-SS cell (2.5×10^4 cells/ml) were inoculated and cultivated at 37° C. for 6 days in the incubator containing 5% CO2. Thereafter, the number of living cells was determined by the MTT method (R. Pauwels et al., J. Virol. Methods, 20, 309 (1988), etc.), and the determined value was defined as (ODT)HIV. HIV-non-infected CEMM-SS cells and HIV-infected CEMM-SS cells were respectively cultivated under the same conditions provided that the concentration of Test Compound was zero. Thereafter, the number of living cells was determined, and the respectively determined value was defined as (ODC)MOCK and (ODC)HIV. Using these values, (ODT)HIV, (ODC)MOCK and (ODC)HIV, inhibitory rate, ratio preventing T cell lymphocytes infected with said HIV virus from dying, was calculated according to the following formula:
[(ODT)HIV−(ODC)HIV][/(ODC)MOCK−(ODC)HIV]
Based on EC50 which is the concentration of Test Compound making the calculated inhibitory rate 50%, anti-HIV activity was evaluated.
(§1) The results of HIV protease inhibitory activity and anti-HIV activity of the compound of the present invention evaluated by the above-mentioned methods were shown in Table 1, together with the results of Compound of Reference Example. In Table 1, HIV protease inhibitory activity is shown as the inhibitory rate when the final concentration of Test Compound in the reaction solution was 5 μM, and the values in parentheses correspond to the inhibitory rate when the final concentration of Test Compound in the reaction solution was 50 nM.

recombinant HIV protease = target: T1, recombinant HIV protease (Human immunodeficiency virus type 1 group M subtype B, UniProt P12497); test: HIV protease inhibitory activity (cleavage of synthetic nonapeptide substrate, reverse phase HPLC); assay type: biochemical; settings: pH5.5, 37° C., 60 minutes; for Inhibition of HIV protease (inhibitory rate) / inhibition at 5 µM: final concentration of Test Compound 5 μM; for inhibition at 5 µM: read-out: Inhibition of HIV protease (inhibitory rate)
T1 construct: Instead of natural HIV protease, recombinant HIV protease already reported in the literature
Experimental: HIV protease inhibitory activity of the compounds of the present invention [Compounds of Working Examples 1-7] was evaluated according to the test method already reported in the literature (Journal of Synthetic Organic Chemistry, Japan, 52,403-412 (1994), Japanese Patent Unexamined Publication No. 1993-170722, etc.). In addition, using Compounds of Reference Examples 1-4, similar test was carried out.
Instead of natural HIV protease, recombinant HIV protease already reported in the literature (cf. Science, 230, 949 (1985)) was used for the evaluation of HIV protease inhibitory activity (cf. Japanese Patent Unexamined Publication No. 1993-170722, etc.). As the substrate of said recombinant HIV protease, synthetic nonapeptide substrate (Ac-Arg-Ala-Ser-Gln-Asn-Tyr-Pro-Val-Val-NH2 trifluoroacetate) was used, and protease activity was determined.
Fifteen μl of the reaction solution containing 100 mM (final concentration) of MES buffer solution (pH5.5), 40 mM of said substrate, 9.2 μg of said recombinant HIV protease, and various concentration of Test Compound (for example, Test Compound was previously dissolved in DMSO, etc.) was used, and the reaction was started after said recombinant HIV protease had been added to the reaction solution. The reaction was carried out at 37° C. for 60 minutes, and then, the reaction was stopped by addition of 15 μl of acetonitrile. The amount of the peptide fragment produced by cleaving the substrate between -Tyr . . . Pro- of said substrate was determined according to the internal standard method of reverse phase HPLC. When the concentration of test compound was zero, protease activity was defined as 100%; when the peptide fragment was not detected, remaining protease activity was defined as 0%; and remaining protease activity was calculated based on the determined concentration of the peptide fragment. When the remaining protease activity was 0%, inhibition rate which indicates activity inhibiting HIV protease was defined as 100%, and the inhibition rate was defined according to the value taken the remaining protease activity indicated by said percentage from 100%.
as §1

[2] = Human immunodeficiency virus 1, 144 h
[3] = final concentration of Test Compound 50 nM

| SMILES | EC50 [1, 2] [nM] | Inhibition of HIV protease (inhibitory rate, values in parentheses) (recombinant HIV protease; [3]) | Inhibition of HIV protease (inhibitory rate) (recombinant HIV protease) [%] | other results |
| --- | --- | --- | --- | --- |
| Cc1cn([C@H]2C[C@H](N=[N+]=[N-])[C@@H](CO)O2)c(=O)[nH]c1=O [AZT, 3′-azido-3′-deoxythymidine, reference compound] | 11 |  |  |  |
| CC(C)(C)NC(=O)[C@@H]1CSCN1C(=O)[C@@H](O)[C@H](Cc1ccccc1)NC(=O)CC(C)(C)C(=O)O [Ref. Ex. 1, (R)-N-t-butyl-3-[(2S,3S)-3-(3,3-dimethylsuccinyl)amino-2-hydroxy-4-phenylbutyryl]-1,3-thiazolidine-4-carboxamide] |  | (20%) | 93 |  |
| CC(C)(C)NC(=O)[C@H]1N(C(=O)[C@@H](O)[C@H](Cc2ccccc2)NC(=O)CC(C)(C)C(=O)O)CSC1(C)C [Ref. Ex. 2, (R)-N-t-butyl-3-[(2S,3S)-3-(3,3-dimethylsuccinyl)amino-2-hydroxy-4-phenylbutyryl]-5,5-dimethyl-1,3-thiazolidine-4-carboxamide] |  | (76%) | 99 |  |
| Cc1ccccc1CNC(=O)[C@@H]1CSCN1C(=O)[C@@H](O)[C@H](Cc1ccccc1)NC(=O)CC(C)(C)C(=O)O [Ref. Ex. 3, (R)-N-(2-methylbenzyl)-3-[(2S,3S)-3-(3,3-dimethylsuccinyl)amino-2-hydroxy-4-phenylbutyryl]-1,3-thiazolidine-4-carboxamide] |  |  | 87 |  |
| Cc1ccccc1CNC(=O)[C@H]1N(C(=O)[C@@H](O)[C@H](Cc2ccccc2)NC(=O)CC(C)(C)C(=O)O)CSC1(C)C [Ref. Ex. 4, (R)-N-(2-methylbenzyl)-3-[(2S,3S)-3-(3,3-dimethylsuccinyl)amino-2-hydroxy-4-phenylbutyryl]-5,5-dimethyl-1,3-thiazolidine-4-carboxamide] |  | (78%) | 100 |  |
| Cc1ccccc1CNC(=O)[C@@H]1CSCN1C(=O)[C@@H](O)[C@H](Cc1ccccc1)NC(=O)CC(C)(C)C(=O)OC[C@H]1O[C@@H](n2cc(C)c(=O)[nH]c2=O)CC1N=[N+]=[N-] (some centres unmarked) [Working Ex. 4] |  |  | 11 | EC50 [1]: 3.8 nM |
| Cc1ccccc1CNC(=O)[C@@H]1CSCN1C(=O)[C@@H](O)[C@H](Cc1ccccc1)NC(=O)C(C)C(C)C(=O)OC[C@H]1O[C@@H](n2cc(C)c(=O)[nH]c2=O)CC1N=[N+]=[N-] (stereo partly drawn) [Working Ex. 5, {(2S,5R)-3-azido-5-[5-methyl-2,4-dioxo-3,4-dihydro-1(2H)-pyrimidinyl]tetrahydro-2-furanyl}methyl 4-([(1S,2S)-1-benzyl-2-hydroxy-3-((4R)-4-([(2-methylbenzyl)amino]carbonyl}-1,3-thiazolidin-3-yl)-3-oxopropyl]amino)-2,3-dimethyl-4-oxobutanoate] | 8.9 |  |  | inhibition at 5 µM (recombinant HIV protease; pH 5.5): 57% |
| Cc1ccccc1CNC(=O)[C@H]1N(C(=O)[C@@H](O)[C@H](Cc2ccccc2)NC(=O)CC(C)(C)C(=O)OC[C@H]2O[C@@H](n3cc(C)c(=O)[nH]c3=O)CC2N=[N+]=[N-])CSC1(C)C (some centres unmarked) [Working Ex. 6] |  |  | 83 | EC50 [1]: 0.24 nM |
| Cc1ccccc1CNC(=O)[C@H]1N(C(=O)[C@@H](O)[C@H](Cc2ccccc2)NC(=O)C(C)C(C)C(=O)OC[C@H]2O[C@@H](n3cc(C)c(=O)[nH]c3=O)CC2N=[N+]=[N-])CSC1(C)C (stereo partly drawn) [Working Ex. 7, {(2S,5R)-3-azido-5-[5-methyl-2,4-dioxo-3,4-dihydro-1(2H)-pyrimidinyl]tetrahydro-2-furanyl}methyl 4-([(1S,2S)-1-benzyl-3-((4R)-5,5-dimethyl-4-{[(2-methylbenzyl)amino]carbonyl}-1,3-thiazolidin-3-yl)-2-hydroxy-3-oxopropyl]amino}-2,3-dimethyl-4-oxobutanoate] | 7.3 |  |  | inhibition at 0.05 µM (recombinant HIV protease; pH 5.5, final concentration of Test Compound 50 nM, read-out: Inhibition of HIV protease (inhibitory rate, values in parentheses)): 39%; inhibition at 5 µM (recombinant HIV protease; pH 5.5): 96% |
